Experimental data taken from US10253069B2, “Compositions and methods for regulating arterial tone” (University of Virginia Patent Foundation, priority 2012, dated 2019).

What was measured:
[1] = system: thoracodorsal (TD) arteries; test: Vasoreactivity of cannulated, pressurized TD arteries (pressure myograph) after siRNA transfection or PTU/L-NAME treatment; set-up: species or system mouse; details: for Contraction to 5-HT 50 nM post 15 min, % initial diameter: 15 minutes after stimulation, PTU 50 μM, n = 3; for PE CCRC Emax (% initial diameter): phenylephrine, TD arteries pretreated with PTU (50 μM) and/or L-NAME (100 μM)
Experimental: TD arteries (maximal internal diameter 261.7±4.2 μm) were isolated, cannulated in a pressure myograph (Danish MyoTechnology) and secured with 10.0 nylon sutures as described in^7. The TD arteries were placed in a circulating bath of Krebs-HEPES and perfused with Krebs-HEPES supplemented with 1% BSA. Arteries were maintained in a no flow state and pressurized at 80 mmHg as previously described^1. […] Acetylcholine (1 μM) was added to the bath to verify the integrity of the endothelium. […] At the end of the experiments, the solution was replaced by a calcium-free Krebs supplemented with 2 mM ethylenbis-(oxyethylenenitrolo) tetra-acetic acid (EGTA) and 10 μM sodium nitroprussiate in order to measure the maximal diameter. […] Internal diameters were calculated and results are expressed as a percentage of initial inner diameter (for PE dose responses) or percent dilation (for Ach dose responses). […] The TD arteries were isolated and cannulated as described above. The vessel lumen was perfused with Krebs-HEPES buffer supplemented with 1% BSA to flush out red blood cells and 100 μL of Nucleofector transfection reagent (HCAEC Nucleofector kit, Lonza) containing 10 nM control, Hb α or CytB5R3 siRNAs (see Table below) was perfused into the lumen. Arteries were then removed from the cannula and the ends ligated with 10-0 nylon sutures to maintain the transfection reagent and siRNA in the blood vessel lumen. Ligated arteries were then transferred to a transfection cuvette (Lonza) containing 100 μL Nucleofector transfection reagent and electroporated using the Nucleofector II Device (Lonza) using setting A-034. Transfected TDA were removed from cuvettes, re-cannulated and perfused with RPMI media+1% BSA to remove residual transfection reagent and siRNA. Arteries were cultured for 15-18 hours at 37° C. in RPMI+1% BSA and used for vasoreactivity studies or processed for immunofluorescence microscopy. To eliminate variability of transfection efficiency and vessel viability, one control siRNA vessel and one Hb α/CytBSR3 vessel were transfected daily.

[2] = system: TD arteries; test: Nitric oxide diffusion assay, ex vivo TD arteries; set-up: species or system mouse; details: isolated TD arteries
Experimental: (§1) Anaerobic aqueous NO was generated by bubbling 100% helium into a beaker containing deionized water. Following 30 minutes, 99.5% NO′ gas was bubbled for an additional 40 minutes giving a final saturated concentration of approximately 1.7 mM.
(§2) Both ECs and SMCs were cultured on 12 mm Transwells as described above. After three days of co-culture, media was removed and replaced with 500 μL of Krebs buffer on each side of the Transwells and cells were allowed to equilibrate for 15 minutes. Next, 100 μL of anaerobic aqueous NO was added to the 500 μLs of Kreb's buffer on the EC side of the Transwell. After 5 minutes, 100 μL of Krebs buffer was immediately removed and injected into a Seivers Nitric Oxide Analyzer (NOA). Data was quantified using Origin Pro 6.0 by calculating the area under the peak over time. Differences between samples were expressed as μM change. For experiments on ex vivo samples, TD arteries were cannulated (as described above) in puddle of 100 μL of Krebs buffer created by parafilm. […] Data was quantified using Origin Pro 6.0 by calculating the area under the peak over time. Differences between samples were expressed as μM change.

[3] = system: VCCC (human coronary ECs and SMCs); test: Nitric oxide diffusion assay, VCCC; assay type: cell-based
Experimental: as §1, §2

[4] = system: eNOS phosphorylation on serine 1177; test: Western blot of pS1177 eNOS in coronary endothelial cells; assay type: cell-based, human; details: 5 μmol/L peptide, 20 minutes
Experimental: (§3) Primary coronary endothelial cells (Lonza) were cultured on plastic 6-well dishes as previously described^9. For studies involving basal NO release, endothelial cells were incubated with 5 μmol/L of Scr X or Hb α X for 20 minutes followed by medium collection and nitrite measurements as described below. For bradykinin studies, coronary endothelial cells were grown to confluence followed by serum starvation overnight in a cocktail of Lonza EGM-2 medium supplemented with EGM-2 bullet kit and Opti MEM reduced growth medium using a ratio of 1:9 respectively. The next day, endothelial cells were incubated with Scr X or Hb α X peptide for 20 minutes followed by the addition of 10 μM bradykinin (Sigma) for 5 minutes followed by medium collection for nitrite measurements as described below.
Endothelial cells were harvested in lysis buffer, sonicated and subjected to electrophoresis using 10% Bis-Tris gels (Invitrogen) as previously described^13. Proteins were transferred to nitrocellulose, incubated with phospho-eNOS S1177 (BD Biosciences) or total eNOS (Sigma) and visualized and quantitated using Li-Cor Odyssey Imager as previously described^14.

[5] = system: thoracodorsal arteries; test: Pressure myography on thoracodorsal arteries, phenylephrine dose response with peptides; set-up: species or system mouse
[6] = system: human coronary endothelial cells; test: Nitrite measurements from media of coronary endothelial cells; assay type: cell-based; details: unstimulated cells
Experimental: as §3
Quantitation of nitrite in culture medium was measured by chemiluminescence using a Sievers nitric oxide analyzer according to manufacturer's instructions. Quantitation of peaks was analyzed using Origin Pro 6.0 as previously described^9.

Compound | Contraction to 5-HT 50 nM post 15 min, % initial diameter ([1]; TD arteries) [n.s. % initial diameter] | PE CCRC Emax (% initial diameter) [1] [% initial diameter] | NO diffusion across the vessel wall [2] | NO diffusion in the VCCC [3] | other results
COC(=O)[C@@H](N)CCCNC(=N)N[N+](=O)[O-] [L-NAME, L-N^G-nitroarginine methyl ester] | 57.0 ± 3.29 | 62.6 ± 6.1 | – | – | –
CCCc1cc(=O)[nH]c(=S)[nH]1 [PTU, propylthiouracil] | 64.1 ± 4.5 | 91.4 ± 2.5 | increased NO diffusion | increased NO diffusion | Reversibility of the PTU effect with L-thyroxine supplementation ([1]; L-thyroxin 50 μM + PTU, 10 μM PE stimulation): not reversible; Basal tone ([1]; TD arteries): No difference in basal tone; Ach CCRC Emax (% Dilation) ([1]; acetylcholine, TD arteries pretreated with PTU): 94.9 ± 1.7 % Dilation; PE and Ach responses with the addition of L-NAME ([1]; plus NOS inhibitor L-NAME, TD arteries): comparable to control conditions
[C-]#[O+] [carbon monoxide] | – | – | increased NO diffusion | increase in NO diffusion | –
Scrambled control peptide FPYFSTKLTT (SEQ ID NO:40) with HIV-tat tag YGRKKRRQRRR at the N-terminus [Scr X] | – | – | – | – | Basal eNOS phosphorylation on serine 1177 [4]: no differences; Constriction in phenylephrine dose response curves ([5]; compared to untreated arteries): no difference from control; Emax, vascular reactivity dose response curves ([5]; phenylephrine dose response, thoracodorsal arteries perfused with peptide): 38.3 ± 2.4 % initial diameter; Accumulation of nitrite in the culture medium, basal [6]: no differences
